Tests used:
[1] = target: T1, Coelenterazine h 2-monooxygenase (Renilla reniformis, UniProt P27652)
T1 sequence (P27652 whole entry): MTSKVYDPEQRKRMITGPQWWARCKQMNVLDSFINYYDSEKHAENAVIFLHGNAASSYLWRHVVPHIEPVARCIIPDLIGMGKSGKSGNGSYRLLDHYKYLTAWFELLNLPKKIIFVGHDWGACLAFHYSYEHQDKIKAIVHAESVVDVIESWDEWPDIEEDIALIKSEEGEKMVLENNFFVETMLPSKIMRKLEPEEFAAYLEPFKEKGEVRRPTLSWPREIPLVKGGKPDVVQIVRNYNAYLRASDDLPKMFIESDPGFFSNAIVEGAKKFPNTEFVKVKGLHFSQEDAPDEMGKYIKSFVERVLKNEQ
Description: GSK_PKIS: Inhibition of Sea Pansy Luciferase (Data from PubChem: AID 652015) [NIH NCATS]

[2] = target: Luciferin 4-monooxygenase (Photinus pyralis, UniProt P08659)
Chain of Luciferin 4-monooxygenase (P08659 whole entry): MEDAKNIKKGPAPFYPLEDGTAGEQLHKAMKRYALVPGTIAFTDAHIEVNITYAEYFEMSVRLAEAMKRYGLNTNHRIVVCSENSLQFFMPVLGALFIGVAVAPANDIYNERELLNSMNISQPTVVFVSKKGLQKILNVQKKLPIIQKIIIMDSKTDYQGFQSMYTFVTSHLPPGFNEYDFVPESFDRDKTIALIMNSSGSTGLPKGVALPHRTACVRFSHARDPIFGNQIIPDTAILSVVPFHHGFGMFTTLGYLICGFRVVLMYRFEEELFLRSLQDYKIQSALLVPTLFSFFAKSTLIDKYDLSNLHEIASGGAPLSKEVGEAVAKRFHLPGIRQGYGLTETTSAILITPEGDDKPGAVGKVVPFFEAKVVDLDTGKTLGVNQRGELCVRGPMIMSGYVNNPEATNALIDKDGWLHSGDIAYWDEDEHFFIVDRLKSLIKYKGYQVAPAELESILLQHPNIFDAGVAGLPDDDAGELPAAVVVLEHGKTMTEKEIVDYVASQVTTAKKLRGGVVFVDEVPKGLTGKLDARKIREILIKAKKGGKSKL
Description: GSK_PKIS: Inhibition of Firefly Luciferase (Data from PubChem: AID 652016) [NIH NCATS]

| AC50 ([1]; read-out: AC50) [µM] | AC50 ([2]; read-out: AC50) [µM] | Structure (SMILES) | AC50 [1] | AC50 [2] |
| --- | --- | --- | --- | --- |
| – | – | CN1CCC(C(=O)Nc2n[nH]c3nnc(-c4ccccc4)cc23)CC1.Cl | Phenotype: Inactive; Curve_Description: None | Phenotype: Inactive; Curve_Description: None |
| 20.6 | – | C[C@@H](Oc1cc(-n2cnc3ccc(OC4CCN(C)CC4)cc32)sc1C(N)=O)c1ccccc1Cl [GSK-579289A] | – | Phenotype: Inactive; Curve_Description: None |
| – | – | COc1cc(C=NNc2ncnc3c2cnn3-c2ccccc2)ccc1O [GW513184X] | Phenotype: Inactive; Curve_Description: None | Phenotype: Inactive; Curve_Description: None |
| – | – | CN(C)CCOc1ccc(-c2cc(-c3ccc4c(c3)CCC4=NO)c(-c3ccncc3)o2)cc1.Cl | Phenotype: Inactive; Curve_Description: None | Phenotype: Inactive; Curve_Description: None |
| – | 20.6 | CS(=O)(=O)Nc1ccc(-c2ccc3c(NC(=O)C4CC4)n[nH]c3c2)cc1 | Phenotype: Inactive; Curve_Description: None | – |
| – | – | CN1CCC(n2cnc(-c3ccc(F)cc3)c2-c2ccnc(N)n2)CC1 | Phenotype: Inactive; Curve_Description: None | Phenotype: Inactive; Curve_Description: None |
| – | 9.19 | CN1CCN(C(=O)c2ccc(NC(=O)Nc3ccc(N(C)c4ccnc(Nc5ccc(CS(C)(=O)=O)cc5)n4)cc3)cc2)CC1.Cl [GW830263A] | Phenotype: Inactive; Curve_Description: None | – |
| 20.6 | – | COc1cccc(COc2cc(-n3cnc4ccccc43)sc2C(N)=O)c1 [GW804482X] | – | Phenotype: Inactive; Curve_Description: None |
| – | 18.3 | CN(c1ccc(NC(=O)Nc2ccc(OC(F)(F)F)cc2)cc1)c1ccnc(Nc2cccc(S(N)(=O)=O)c2)n1 [GW806742X] | Phenotype: Inactive; Curve_Description: None | – |
| – | – | CCn1c(-c2nonc2N)nc2c(N3CCCC3)nccc21 | Phenotype: Inactive; Curve_Description: None | Phenotype: Inactive; Curve_Description: None |
| – | 3.66 | COc1cc(/C=N/Nc2ncnc3[nH]ncc23)ccc1O [GW578748X] | Phenotype: Inactive; Curve_Description: None | – |
| – | 1.03 | CCn1c(-c2nonc2N)nc2cnc(Oc3cccc(NC(=O)c4ccc(N(C)C)cc4)c3)cc21 [GSK-248233A] | Phenotype: Inactive; Curve_Description: None | – |
| – | – | NC(=O)c1ccc2c(-c3ccnc(NCCCO)n3)c(-c3ccc(F)cc3)nn2c1 [GW581744X] | Phenotype: Inactive; Curve_Description: None | Phenotype: Inactive; Curve_Description: None |
| – | – | NS(=O)(=O)c1ccc(N/N=C2\C(=O)Nc3ccc(-c4cnco4)cc32)cc1 [GW276655X] | Phenotype: Inactive; Curve_Description: None | Phenotype: Inactive; Curve_Description: None |
| – | – | c1ccc(-c2n[nH]cc2-c2ccnc(-c3ccc(OCCN4CCOCC4)cc3)c2)nc1 [GW695874X] | Phenotype: Inactive; Curve_Description: None | Phenotype: Inactive; Curve_Description: None |
| – | – | COc1cc2ncn(-c3cc(OCc4ccccc4S(C)(=O)=O)c(C#N)s3)c2cc1OC [GSK-319347A] | Phenotype: Inactive; Curve_Description: None | Phenotype: Inactive; Curve_Description: None |
| – | – | CCn1cc(-c2ccnc3[nH]ccc23)c(-c2cccc(NC(=O)Nc3ccc(OCc4ccccc4)cc3)c2)n1 [GSK-718429A] | Phenotype: Inactive; Curve_Description: None | Phenotype: Inactive; Curve_Description: None |
| – | 5.8 | COc1ccc(Nc2ncc(-c3ccccc3)o2)cc1OC.Cl [GW575533A] | Phenotype: Inactive; Curve_Description: None | – |
| – | – | COc1cccc(-n2nc(C)c3c(N/N=C(\C)c4ccncc4)ncnc32)c1 [GW809885X] | Phenotype: Inactive; Curve_Description: None | Phenotype: Inactive; Curve_Description: None |
| – | – | COc1cc(N2CCN(C(C)C)CC2)ccc1Nc1nc(Nc2cccc(F)c2C(=O)O)c2cc[nH]c2n1 [GSK-1819799A] | Phenotype: Inactive; Curve_Description: None | Phenotype: Inactive; Curve_Description: None |
| – | – | Cn1c(-c2nonc2N)nc2cnccc21 | Phenotype: Inactive; Curve_Description: None | Phenotype: Inactive; Curve_Description: None |
| – | – | Cc1nc(-c2ccccc2)n2nc(NCCCN3CCOCC3)ncc12 [GW874091X] | Phenotype: Inactive; Curve_Description: None | Phenotype: Inactive; Curve_Description: None |
| – | – | NS(=O)(=O)c1ccc(-c2ccc3c(NC(=O)C4CC4)n[nH]c3c2)cc1 | Phenotype: Inactive; Curve_Description: None | Phenotype: Inactive; Curve_Description: None |
| – | – | Clc1ccc(CNc2nccc(-c3cnn4ncccc34)n2)cc1 [GW781673X] | Phenotype: Inactive; Curve_Description: None | Phenotype: Inactive; Curve_Description: None |

| AC50 ([1]; read-out: AC50) [µM] | AC50 ([2]; read-out: AC50) [µM] | Structure (SMILES) | AC50 [1] | AC50 [2] |
| --- | --- | --- | --- | --- |
| – | 41.1 | NC(=O)c1cc(-c2ccncc2)cc(-c2ccccc2)c1N [GSK-625137A] | Phenotype: Inactive; Curve_Description: None | – |
| – | – | Cl.Nc1ncnc2occ(-c3ccc(NC(=O)Nc4cc(C(F)(F)F)ccc4F)cc3)c12 [GW770249A] | Phenotype: Inactive; Curve_Description: None | Phenotype: Inactive; Curve_Description: None |
| 23.1 | – | COc1cc2c(cc1Nc1nc(N3CCc4ccccc43)c3cc[nH]c3n1)N(C(=O)CN(C)C)CC2 [GSK-2186269A] | – | Phenotype: Inactive; Curve_Description: None |
| – | – | Nc1nc(-c2cccc(Cl)c2)c(-c2ccc3ncccc3n2)s1 [GW780159X] | Phenotype: Inactive; Curve_Description: None | Phenotype: Inactive; Curve_Description: None |
| – | – | CC(C)COC(=O)c1ccc2c(c1)/C(=C/Nc1ccc(S(N)(=O)=O)cc1)C(=O)N2 [GW416981X] | Phenotype: Inactive; Curve_Description: None | Phenotype: Inactive; Curve_Description: None |
| 25.9 | – | COc1ccc2[nH]c3c4[nH]c5ccc(OC)cc5c4c4c(c3c2c1)C(=O)NC4=O [GW296115X] | – | Phenotype: Inactive; Curve_Description: None |
| – | – | COC(=O)c1sc(-n2cnc3cc(OC)c(OC)cc32)cc1OCc1ccccc1C(F)(F)F [GSK-1030058A] | Phenotype: Inactive; Curve_Description: None | Phenotype: Inactive; Curve_Description: None |
| 18.3 | – | Cc1cccc2c1NC(=O)/C2=N\Nc1ccc(S(N)(=O)=O)cc1 [GW282536X] | – | Phenotype: Inactive; Curve_Description: None |
| – | 16.3 | COc1cccc(-n2cnc3c(N/N=C/c4ccncc4)ncnc32)c1 [GW813360X] | Phenotype: Inactive; Curve_Description: None | – |
| – | – | Cc1cc(O)cc(C)c1/C=C/c1cncc(C(=O)N(C)C)c1 [GW427984X] | Phenotype: Inactive; Curve_Description: None | Phenotype: Inactive; Curve_Description: None |
| 18.3 | – | CCS(=O)(=O)c1ccc(OC)c(Nc2ncc(-c3cccc(OC)c3)o2)c1 [GW580509X] | – | Phenotype: Inactive; Curve_Description: None |
| – | – | Cc1ccc2c(-c3ccnc(Nc4ccccc4)n3)c(-c3ccc(F)cc3)nn2n1 [GW833373X] | Phenotype: Inactive; Curve_Description: None | Phenotype: Inactive; Curve_Description: None |
| – | 20.6 | NS(=O)(=O)c1ccc(Nc2cc(-c3cccc(O)c3)n[nH]2)cc1 [GW831090X] | Phenotype: Inactive; Curve_Description: None | – |
| 36.6 | – | NS(=O)(=O)c1ccc(Nc2cc(-c3ccc(O)c(F)c3)n[nH]2)cc1 [GW831091X] | – | Phenotype: Inactive; Curve_Description: None |
| – | – | Clc1ccc(-c2nn3ncccc3c2-c2ccnc(Nc3ccccc3)n2)cc1 [GW829055X] | Phenotype: Inactive; Curve_Description: None | Phenotype: Inactive; Curve_Description: None |
| – | 46.1 | N#Cc1ccc2c(-c3ccnc(NC4CC4)n3)c(-c3ccc(F)cc3)nn2c1 [GW561436X] | Phenotype: Inactive; Curve_Description: None | – |
| – | 18.3 | Cc1ccc(-c2cc3c(NC(=O)C4CC4)ncnc3o2)cc1 [GW819230X] | Phenotype: Inactive; Curve_Description: None | – |
| – | – | CNC(=O)c1cncc(/C=C/c2ccccc2C)c1 [GW445015X] | Phenotype: Inactive; Curve_Description: None | Phenotype: Inactive; Curve_Description: None |
| – | – | O=C1NC(=O)C(c2cccc(Cl)c2)=C1Nc1ccc(Cl)c(C(=O)O)c1 | Phenotype: Inactive; Curve_Description: None | Phenotype: Inactive; Curve_Description: None |
| – | – | COc1cc2ncnc(Nc3ccc4c(cnn4Cc4ccccc4)c3)c2cc1OC.Cl [GW282449A] | Phenotype: Inactive; Curve_Description: None | Phenotype: Inactive; Curve_Description: None |
| – | 18.3 | NS(=O)(=O)c1cccc(N/C=C2\C(=O)Nc3ccccc32)c1 [GW275616X] | Phenotype: Inactive; Curve_Description: None | – |
| – | – | CCS(=O)(=O)c1ccc(OC)c(Nc2ncc(-c3cccc(-c4ccccc4F)c3)o2)c1 [GW678313X] | Phenotype: Inactive; Curve_Description: None | Phenotype: Inactive; Curve_Description: None |
| – | – | CCOc1ccc2c(-c3ccnc(Nc4cccc(C(F)(F)F)c4)n3)cnn2n1 [GW811761X] | Phenotype: Inactive; Curve_Description: None | Phenotype: Inactive; Curve_Description: None |

| Structure (SMILES) | AC50 ([1]; read-out: AC50) [µM] | AC50 ([2]; read-out: AC50) [µM] | AC50 [1] | AC50 [2] |
| --- | --- | --- | --- | --- |
| CCn1c(-c2nonc2N)nc2c(C#CC(C)(C)O)nc(O[C@@H](CN)c3ccccc3)cc21.O=C(O)C(F)(F)F [GSK-1007102B] | 29.1 | – | – | Phenotype: Inactive; Curve_Description: None |
| [O-][S+]1CCN(Cc2ccc(-c3ccc4ncnc(Nc5ccc(OCc6ccccc6)c(Cl)c5)c4c3)o2)CC1 [GW583373A] | 0.0005 | 14.6 | – | – |

Reference: ChEMBL document CHEMBL2303647, “Data associated with the publication PLoS ONE, 8(3), e57888, (2013) PMID: 23505445. Compounds: GSK PKIS; Assays: NIH NCATS”
